In US20130011376A1, “Methods for Enhancing Natural Killer Cell Proliferation and Activity” (GAMIDA CELL LTD., priority 2009, published 2013):

Tests used:
Assay type in all cases: cell-based, human
[1] = test system: peripheral blood NK (T-cell depleted) cells; test: Expansion of CD3+ or CD3+/CD19+ depleted peripheral blood NK cells in culture bags
Description: For depletion procedure, total nuclear cells from umbilical cord blood (CB), bone marrow (BM) or peripheral blood (PB) cells were layered on a Ficoll-Hypaque gradient (1.077 g/mL; Sigma), and centrifuged at 800×g for 30 minutes for separation of the mononuclear cells. The cells in the interface layer were collected and washed three times in phosphate-buffered saline (PBS) (Biological Industries, Israel) containing 0.5% HSA. Optionally, cells are not separated on the Ficoll-Hypaque gradient but washed three times in phosphate-buffered saline (PBS) (Biological Industries) containing 0.5% HSA (“total mononuclear fraction”). CD3 cells were depleted using the CD3 cell isolation kit (Miltenyi Biotec Bergisch, Gladbach, Germany) and the entire CD3 negative cell fraction was cultured. Optionally, CD19 cells were also depleted using the CD19 cell isolation kit (Miltenyi Biotec Bergisch, Gladbach, Germany) and the CD3/CD19 negative (CD3/CD19 depleted) cell fraction was cultured. Optionally, RosetteSep Human CD3+ Cell Depletion Cocktail (Stem Cell Technologies, RosestteSep, Cat. No. 15661)] was used for CD3 depletion and the entire CD3 negative cell fraction was cultured. After negative depletion the cells were counted and characterized by FACS analysis.
3. CD3+ depleted, or CD3+/CD19+ depleted mononuclear cell fraction from PB, BM and CB were cultured in culture bags, T-Flasks or 24 well plates at a concentration of 1−1000×10^4 cells/ml in MEMα/10% FCS or CellGro SCGM (Cell Genix)/5% Human Serum/LiforCell® FBS Replacement (Lifeblood Products) containing the following human recombinant cytokines: interleukin-2 (IL-2) or and interleukin-15 (IL-15), with or without FLT-3 or SCF or FLT3 and SCF (5-50 ng/ml) (Perpo Tech, Inc., Rocky Hill, N.J., USA), all combinations, with or without nicotinamide and incubated at 37° C. in a humidified atmosphere of 5% CO2 in air. The cultures were topped weekly or twice a week with the same volume of fresh medium containing growth factors with or without nicotinamide. Cultures were later supplemented once or several times a week with IL-2 and or IL-2 and IL-15. To estimate number of cells in culture, cell samples were counted following staining with trypan blue. At various time points, samples are taken to FACS analysis to assay the relative fractions of NK cells, CD56+CD3−, CD56+CD3+, CD34+CD56+, CD56+CD16+ and/or CD56+ NKG2A cells.
In order to calculate the number of NK cells on day 0, the total number of cells seeded on day 0 was multiplied by the percent of CD56+/CD3− cells measured by the FACS on day 0.
To determine total number of cells on day 7, 14 and 21, the cell count/ml was multiplied by the volume of the culture medium. In order to determine the number of NK cells in culture, the total number of cells in culture was multiplied by the percent of CD56+/CD3− cells measured with the FACS on days 7, 14 or 21. To measure fold expansion, total number of NK cells on days 7, 14 and 21 was divided by total number of NK cells seeded in culture on day-0.

[2] = test system: cord-blood derived NK cells; test: Expression of CXCR4, CD49e and CD62L receptors on cultured cord blood NK cells (FACS); conditions: 2.5 or 5 mM nicotinamide, three weeks, vs cytokines only
Description: 2. Purified CD56+ or CD56+CD3− cells from total nuclear or mononuclear cells or from the fraction depleted from CD34+ or CD133+ cells were cultured in culture bags, T-Flasks or 24 well plates at a concentration of 1-100×10^4 cells/ml in MEMα/10% FCS or CellGro SCGM (Cell Genix)/5% Human Serum/LiforCell® FBS Replacement (Lifeblood Products) containing the following human recombinant cytokines:, interleukin-2 (IL-2) (5-50 ng/ml), interleukin-15 (IL-15), FLT-3 or SCF or FLT3 and SCF or IL-2 and IL-15 or IL-2 only (Perpo Tech, Inc., Rocky Hill, N.J., USA), with or without nicotinamide, and incubated at 37° C. in a humidified atmosphere of 5% CO2 in air. The cultures were topped up once or twice a week with the same volume of fresh medium containing growth factors with or without nicotinamide. Eventually cultures can be supplemented once or several times a week with IL-2 and or IL-2 and IL-15. To estimate the number of cells in culture, cell samples were stained with trypan blue for counting. At various time points, samples were taken for FACS analysis to assay the relative fractions of NK cells, CD56+CD3−, CD56+CD3+, CD34+CD56+, CD56+CD16+ and/or CD56+ NKG2A cells.
(§1) The cells were washed with a PBS solution containing 1% BSA, and stained (at 4° C. for 30 min) with fluorescein isothiocyanate (FITC)- or phycoerythrin (PE)-conjugated antibodies or allophycocyanin (APC). The cells were then washed in the above buffer and analyzed using a FACScalibur® flow cytometer (Becton Dickinson, San Jose, Calif., USA). The cells were passed at a rate of up to 1000 cells/second, using a 488 nm or 661 nm argon laser beam as the light source for excitation. Emission of 10^4 cells was measured using logarithmic amplification, and analyzed using the CellQuest software (Becton Dickinson). Cells stained with FITC, PE and APC-conjugated isotype control antibodies were used to determine background fluorescence.

[3] = test system: peripheral blood CD56+ NK cells; test: CXCR4 and CD62L expression on NK cells co-cultured with irradiated mononuclear cells; conditions: co-culture with irradiated mononuclear cells, nicotinamide 2.5 and 5 mM
Description: NK cell cells from total mononuclear cell fraction, purified CD56+ or CD56+CD3− cells from total nuclear or mononuclear cells or from the fraction depleted from CD34+ or CD133+ cells, or CD3+ depleted, or CD3+/CD19+ depleted mononuclear cell fraction from PB, BM and CB can be cultured with irradiated stroma. For the preparation of irradiated stroma (feeder cells), mononuclear cells were irradiated with 3000 rad. After CD56 or CD56+CD3− selection or CD3 depletion the cells were counted and characterized by FACS analysis as described hereinabove. Cells were cultured as described hereinabove, with and without nicotinamide, with and without irradiated stroma at a concentration of irradiated cells of 20×10^5 cells/ml.
as §1, with “The cells were passed at a rate of up to 1000 cells/second, using a 488 nm or 661 nm argon laser beam as the light source for excitation.” left out, “fluorescence. […]” for “fluorescence.”

NC(=O)c1cccnc1 [nicotinamide]
NK expansion relative to control cultures without nicotinamide ([1]; 2.5 mM and 5 mM nicotinamide, after 14 and 21 days, IL-2 or IL-2+IL-15): significantly higher
CD56+CD3- NK cell proliferation ([1]; 2.5 mM and 5 mM, 21 days, seeding 2-, 5-, and 10x10^5 cells): profound enhancement
NK (CD56+CD3-) cells among cells in culture ([1]; 2-3 weeks in culture with nicotinamide, seeded 2-10% NK cells): more than 90%
non-NK cell fraction vs control cultures ([1]; 2.5 and 5 mM nicotinamide, 21 days post seeding): smaller
NK cell proliferation from day 14 to day 21 ([1]; grown with nicotinamide): continue to proliferate
expression of CD49e (adhesion receptor) [2]: elevated expression
expression of CD62L (trafficking receptor) [2]: strongly enhanced expression
expression of CXCR4 (migratory receptor) [2]: strongly enhanced expression
expression of surface marker CD62L [3]: marked increase
expression of surface marker CXCR4 [3]: marked increase
